Data: ChEMBL document CHEMBL1201862, “PubChem BioAssay data set” (2004)
Calls of active or inactive are those of the source.

Assays:
[1] = growth suppression of PTEN-null colon cells, dose response, cell-based, HCT116 PTEN knockout (AID 1047); type: functional;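 note: HCT116 colon tumor cells with PTEN knocked out; cells exposed to compound for 60 hours before readout; potency for loss of cell viability measured by luminescence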
Fatty acid synthase [2] = molecular target: T1, Fatty acid synthase (Homo sapiens, UniProt P49327); assay: FAS thioesterase domain inhibitors, dose response, biochemical, kinetic fluorescence intensity (AID 624326); type: functional;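 note: rate of fluorescence rise from hydrolysis of a fluorogenic O-methyl fluorescein ester substrate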
[3] = molecular target: T2, Disintegrin and metalloproteinase domain-containing protein 17 (Homo sapiens, UniProt P78536); assay: ADAM17 protease inhibitors, dose response, counter-screen for ADAM10 exosite inhibitor project, biochemical, quenched FRET substrate (AID 743253)
[4] = growth suppression of beta-catenin-knockout colon cells, dose response, cell-based, HCT116, human colon tumor (AID 1045); type: functional;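 note: HCT116 colon tumor cells with beta catenin knocked out; cells exposed to compound for 60 hours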
Fatty acid synthase [5] = molecular target: T1, Fatty acid synthase; assay: FAS thioesterase domain inhibitors, dose response, biochemical, endpoint fluorescence intensity, uHTS hits (AID 624327); type: functional;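 note: fluorescence from hydrolysis of an O-methyl fluorescein acyl ester substrate by the enzyme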
Cytochrome P450 2D6 = Cytochrome P450 2D6 (Homo sapiens, UniProt P10635);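 note: CYP2D6 member of a cytochrome P450 panel assay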
[6] = molecular target: T3, Tyrosine-protein phosphatase non-receptor type 7 (Homo sapiens, UniProt P35236); assay: inhibitors of human HePTP phosphatase, […], biochemical, absorbance, leukemia target (AID 521); type: functional
T3 sequence (P35236 whole entry): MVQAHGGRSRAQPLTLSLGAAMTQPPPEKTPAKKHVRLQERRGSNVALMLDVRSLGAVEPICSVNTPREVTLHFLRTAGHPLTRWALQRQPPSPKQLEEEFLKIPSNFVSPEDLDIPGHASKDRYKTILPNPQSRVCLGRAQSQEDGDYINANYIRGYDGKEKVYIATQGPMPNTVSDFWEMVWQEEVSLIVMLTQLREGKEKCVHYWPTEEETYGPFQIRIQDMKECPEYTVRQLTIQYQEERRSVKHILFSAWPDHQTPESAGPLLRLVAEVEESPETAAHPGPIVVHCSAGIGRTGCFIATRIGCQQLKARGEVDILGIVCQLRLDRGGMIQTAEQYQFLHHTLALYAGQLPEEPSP

[7] = molecular target: T4, RNA-editing ligase 1, mitochondrial (Trypanosoma brucei brucei, UniProt P86926); assay: TbREL1 ligase inhibitors, dose response, biochemical, fluorescence, Trypanosoma brucei (AID 1117295); type: functional
T4 sequence (P86926 whole entry): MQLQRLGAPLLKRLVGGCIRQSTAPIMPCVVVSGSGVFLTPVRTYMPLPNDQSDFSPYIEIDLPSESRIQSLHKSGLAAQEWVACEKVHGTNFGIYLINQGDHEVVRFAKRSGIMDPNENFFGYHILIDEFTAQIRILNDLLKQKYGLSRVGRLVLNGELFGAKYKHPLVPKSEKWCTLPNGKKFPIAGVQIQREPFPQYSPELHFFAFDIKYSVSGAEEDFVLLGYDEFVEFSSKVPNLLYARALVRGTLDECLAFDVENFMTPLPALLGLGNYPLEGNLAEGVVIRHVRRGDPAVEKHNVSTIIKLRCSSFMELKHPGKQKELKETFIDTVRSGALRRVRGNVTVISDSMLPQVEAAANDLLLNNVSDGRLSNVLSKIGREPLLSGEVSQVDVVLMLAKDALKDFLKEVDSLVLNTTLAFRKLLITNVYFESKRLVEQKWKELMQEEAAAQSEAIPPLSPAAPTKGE

INS1 = assay: beta cell apoptosis inhibitors, cytokine rescue, dose response, luminescence, retest (AID 449756); type: functional, cell-based; details: Rattus norvegicus;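 note: cell death triggered by IL-1 beta plus TNF-alpha plus IFN-gamma mixture; protective hits raise ATP signal compared with cytokine alone wells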
[8] = molecular target: T5, Microphthalmia-associated transcription factor (Homo sapiens, UniProt O75030); assay: TRPM1 promoter luciferase signal decrease, dose response, MITF inhibitor project, cell-based, SK-MEL-5, cherry-picked, set 3 (AID 493073); type: functional
T5 sequence (O75030 whole entry): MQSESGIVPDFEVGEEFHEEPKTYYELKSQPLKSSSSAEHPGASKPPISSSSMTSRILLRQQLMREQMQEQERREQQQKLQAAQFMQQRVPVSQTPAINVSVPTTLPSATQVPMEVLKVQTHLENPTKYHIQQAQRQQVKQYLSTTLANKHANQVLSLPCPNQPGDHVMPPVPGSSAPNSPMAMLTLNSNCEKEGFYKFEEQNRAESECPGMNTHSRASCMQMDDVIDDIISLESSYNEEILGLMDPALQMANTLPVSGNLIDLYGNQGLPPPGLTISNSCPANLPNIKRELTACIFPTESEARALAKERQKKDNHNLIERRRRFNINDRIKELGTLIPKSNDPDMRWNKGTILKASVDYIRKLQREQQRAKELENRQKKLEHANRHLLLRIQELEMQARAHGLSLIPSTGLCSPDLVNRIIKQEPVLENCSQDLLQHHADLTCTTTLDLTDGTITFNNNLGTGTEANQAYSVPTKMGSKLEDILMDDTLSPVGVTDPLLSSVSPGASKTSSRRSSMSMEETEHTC

[9] = A375 melanoma cell cytotoxicity, dose response, counter-screen for MITF inhibitor project, CellTiter-Glo luminescence, dry powder, set 2 (AID 624489); type: functional, cell-based; details: A-375;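 note: actives are compounds lowering A375 viability meaning general cytotoxicity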
[10] = inhibitors of PGC1a acetylation in cells, dose response, cell-based, cherry-picked samples (AID 720514); type: functional;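 note: potency may reflect raised or lowered acetylation signal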
[11] = CEM21 lymphoblast cell cytotoxicity, dose response, cytotoxicity control for viral fusion inhibitor project, CellTiter-Glo luminescence, cherry-picked (AID 652042); type: functional, cell-based;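 note: potency for signal decrease meaning cytotoxicity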
[12] = molecular target: T6, Polyadenylate-binding protein 1 (Homo sapiens, UniProt P11940); assay: PABP1 MLLE–PAM2 binding inhibitor potency, dose response, biochemical, fluorescence polarization, FITC-PAM2 peptide (AID 602259); type: functional; details: read-out: IC50_Mean
HEK293 [13] = assay: cells; details: Homo sapiens
[14] = inhibitors of HIV Env-driven cell fusion, dose response, cherry-pick (AID 652057); type: functional, cell-based
[15] = off-target signal loss in HeLa-CEM21 co-culture – HeLa F-luc CTL cells, cherry-picked, counter-screen for HIV-1 Env fusion inhibitor project, dose response (AID 652040); type: functional, cell-based;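 note: potency for signal decrease marking cytotoxic or nonspecific inhibition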
Vero = assay: cells; type: functional; details: Chlorocebus sabaeus
HEK293 [16] = assay: cells; details: Homo sapiens; remark: listed apart in the source
[17] = molecular target: T6, Polyadenylate-binding protein 1; assay: PABP1 MLLE–PAM2 interaction inhibitors, dose response, miRNA deadenylation inhibitor project, biochemical, fluorescence polarization, Cy5-PAM2 peptide, secondary (AID 602260); type: functional; details: read-out: IC50_Mean
[18] = ZM109 Env clade C HIV-1 fusion inhibitors, dose response, HeLa effector, CEM target cells, luciferase, cherry-pick (AID 652058); type: functional, cell-based
[19] = inhibitors of clade B AD8 Env fusion, dose response, cell-based, cherry-pick (AID 652062); type: functional;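 note: luciferase signal from cell-cell fusion driven by HIV-1 clade B AD8 Env; potency is for inhibitors of fusion seen as a drop in luminescence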
[20] = molecular target: Induced myeloid leukemia cell differentiation protein Mcl-1 (Homo sapiens, UniProt Q07820); type: functional
[21] = molecular target: T2, Disintegrin and metalloproteinase domain-containing protein 17; assay: exosite inhibitors of ADAM17, dose response, biochemical (AID 743260)
[22] = ADAM10 protease inhibitors, dose response, selectivity assay for ADAM17 exosite inhibitor project, biochemical, FRET peptide substrate, recombinant human ADAM10 (AID 743259);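 note: ADAM10 enzyme cleaving a FRET peptide substrate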
[23] = molecular target: NAD-dependent protein deacylase sirtuin-5, mitochondrial (Homo sapiens, UniProt Q9NXA8); assay: SIRT5 desuccinylase inhibitors, dose response, biochemical, fluorescence imaging, cherry-pick, set 5 (AID 720591);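 note: desuccinylation of succinyl peptide AMC substrate read as fluorescence after trypsin release; potency of inhibitors that lower fluorescence and may act on trypsin instead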
Estrogen receptor beta = Estrogen receptor beta (Homo sapiens, UniProt Q92731);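 note: recombinant ER-beta bound to coactivator SRC1 peptide in presence of estradiol agonist; inhibitors block coactivator peptide binding and lower the FRET signal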
[24] = molecular target: T7, Rac GTPase-activating protein 1 (Homo sapiens, UniProt Q9H0H5); assay: MgcRacGAP GTPase-activating activity inhibitors, confirmation, biochemical, ADP Hunter fluorescence, primary and confirmatory (AID 624330); type: functional
T7 sequence (Q9H0H5 whole entry): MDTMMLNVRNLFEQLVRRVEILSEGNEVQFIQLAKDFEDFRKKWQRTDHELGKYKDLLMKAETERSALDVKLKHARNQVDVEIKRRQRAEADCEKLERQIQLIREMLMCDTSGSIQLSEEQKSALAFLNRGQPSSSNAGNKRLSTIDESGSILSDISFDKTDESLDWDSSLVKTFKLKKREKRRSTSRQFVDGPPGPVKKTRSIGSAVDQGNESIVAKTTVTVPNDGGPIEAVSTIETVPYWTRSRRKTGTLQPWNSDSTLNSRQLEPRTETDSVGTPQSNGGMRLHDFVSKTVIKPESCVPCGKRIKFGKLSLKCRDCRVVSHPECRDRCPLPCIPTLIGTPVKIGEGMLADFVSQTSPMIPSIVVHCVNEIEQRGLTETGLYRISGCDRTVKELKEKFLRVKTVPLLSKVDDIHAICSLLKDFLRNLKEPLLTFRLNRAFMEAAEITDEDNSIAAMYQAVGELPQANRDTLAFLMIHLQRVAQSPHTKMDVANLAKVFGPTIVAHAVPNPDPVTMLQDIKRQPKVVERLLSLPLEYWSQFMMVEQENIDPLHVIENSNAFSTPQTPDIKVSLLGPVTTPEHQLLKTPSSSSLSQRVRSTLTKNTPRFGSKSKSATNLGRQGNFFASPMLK

[25] = inhibitors of Vif binding to APOBEC3G peptide, primary screen, biochemical, TR-FRET, GST-Vif 1-94, biotin-A3G peptide, dose response retest (AID 1117319); type: functional;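 note: TR-FRET signal of purified GST-Vif binding a biotinylated A3G peptide; inhibitors lower the FRET signal by blocking Vif and A3G binding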

T2 sequence (P78536 whole entry, the tested form may be a part): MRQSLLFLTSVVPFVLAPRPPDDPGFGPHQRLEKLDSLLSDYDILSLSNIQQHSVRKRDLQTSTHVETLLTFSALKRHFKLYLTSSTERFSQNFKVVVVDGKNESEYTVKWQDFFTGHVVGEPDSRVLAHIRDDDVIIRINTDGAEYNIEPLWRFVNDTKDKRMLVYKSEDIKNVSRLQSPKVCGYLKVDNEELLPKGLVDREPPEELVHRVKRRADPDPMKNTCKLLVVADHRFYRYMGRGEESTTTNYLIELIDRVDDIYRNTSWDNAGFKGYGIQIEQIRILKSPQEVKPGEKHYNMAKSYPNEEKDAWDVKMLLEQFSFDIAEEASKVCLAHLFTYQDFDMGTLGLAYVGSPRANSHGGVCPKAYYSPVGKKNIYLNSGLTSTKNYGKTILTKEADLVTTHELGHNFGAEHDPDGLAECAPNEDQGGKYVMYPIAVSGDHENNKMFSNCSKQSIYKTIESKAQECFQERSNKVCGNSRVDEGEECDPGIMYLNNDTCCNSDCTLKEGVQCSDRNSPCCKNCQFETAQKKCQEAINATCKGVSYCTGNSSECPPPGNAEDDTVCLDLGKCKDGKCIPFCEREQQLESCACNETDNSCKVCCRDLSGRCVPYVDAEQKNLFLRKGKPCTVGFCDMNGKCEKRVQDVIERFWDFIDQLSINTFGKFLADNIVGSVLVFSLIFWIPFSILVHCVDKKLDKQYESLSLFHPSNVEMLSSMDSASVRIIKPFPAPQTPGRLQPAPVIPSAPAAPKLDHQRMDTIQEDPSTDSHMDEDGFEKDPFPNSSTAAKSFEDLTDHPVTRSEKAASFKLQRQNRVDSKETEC
T1 sequence (P49327 whole entry, the tested form may be a part): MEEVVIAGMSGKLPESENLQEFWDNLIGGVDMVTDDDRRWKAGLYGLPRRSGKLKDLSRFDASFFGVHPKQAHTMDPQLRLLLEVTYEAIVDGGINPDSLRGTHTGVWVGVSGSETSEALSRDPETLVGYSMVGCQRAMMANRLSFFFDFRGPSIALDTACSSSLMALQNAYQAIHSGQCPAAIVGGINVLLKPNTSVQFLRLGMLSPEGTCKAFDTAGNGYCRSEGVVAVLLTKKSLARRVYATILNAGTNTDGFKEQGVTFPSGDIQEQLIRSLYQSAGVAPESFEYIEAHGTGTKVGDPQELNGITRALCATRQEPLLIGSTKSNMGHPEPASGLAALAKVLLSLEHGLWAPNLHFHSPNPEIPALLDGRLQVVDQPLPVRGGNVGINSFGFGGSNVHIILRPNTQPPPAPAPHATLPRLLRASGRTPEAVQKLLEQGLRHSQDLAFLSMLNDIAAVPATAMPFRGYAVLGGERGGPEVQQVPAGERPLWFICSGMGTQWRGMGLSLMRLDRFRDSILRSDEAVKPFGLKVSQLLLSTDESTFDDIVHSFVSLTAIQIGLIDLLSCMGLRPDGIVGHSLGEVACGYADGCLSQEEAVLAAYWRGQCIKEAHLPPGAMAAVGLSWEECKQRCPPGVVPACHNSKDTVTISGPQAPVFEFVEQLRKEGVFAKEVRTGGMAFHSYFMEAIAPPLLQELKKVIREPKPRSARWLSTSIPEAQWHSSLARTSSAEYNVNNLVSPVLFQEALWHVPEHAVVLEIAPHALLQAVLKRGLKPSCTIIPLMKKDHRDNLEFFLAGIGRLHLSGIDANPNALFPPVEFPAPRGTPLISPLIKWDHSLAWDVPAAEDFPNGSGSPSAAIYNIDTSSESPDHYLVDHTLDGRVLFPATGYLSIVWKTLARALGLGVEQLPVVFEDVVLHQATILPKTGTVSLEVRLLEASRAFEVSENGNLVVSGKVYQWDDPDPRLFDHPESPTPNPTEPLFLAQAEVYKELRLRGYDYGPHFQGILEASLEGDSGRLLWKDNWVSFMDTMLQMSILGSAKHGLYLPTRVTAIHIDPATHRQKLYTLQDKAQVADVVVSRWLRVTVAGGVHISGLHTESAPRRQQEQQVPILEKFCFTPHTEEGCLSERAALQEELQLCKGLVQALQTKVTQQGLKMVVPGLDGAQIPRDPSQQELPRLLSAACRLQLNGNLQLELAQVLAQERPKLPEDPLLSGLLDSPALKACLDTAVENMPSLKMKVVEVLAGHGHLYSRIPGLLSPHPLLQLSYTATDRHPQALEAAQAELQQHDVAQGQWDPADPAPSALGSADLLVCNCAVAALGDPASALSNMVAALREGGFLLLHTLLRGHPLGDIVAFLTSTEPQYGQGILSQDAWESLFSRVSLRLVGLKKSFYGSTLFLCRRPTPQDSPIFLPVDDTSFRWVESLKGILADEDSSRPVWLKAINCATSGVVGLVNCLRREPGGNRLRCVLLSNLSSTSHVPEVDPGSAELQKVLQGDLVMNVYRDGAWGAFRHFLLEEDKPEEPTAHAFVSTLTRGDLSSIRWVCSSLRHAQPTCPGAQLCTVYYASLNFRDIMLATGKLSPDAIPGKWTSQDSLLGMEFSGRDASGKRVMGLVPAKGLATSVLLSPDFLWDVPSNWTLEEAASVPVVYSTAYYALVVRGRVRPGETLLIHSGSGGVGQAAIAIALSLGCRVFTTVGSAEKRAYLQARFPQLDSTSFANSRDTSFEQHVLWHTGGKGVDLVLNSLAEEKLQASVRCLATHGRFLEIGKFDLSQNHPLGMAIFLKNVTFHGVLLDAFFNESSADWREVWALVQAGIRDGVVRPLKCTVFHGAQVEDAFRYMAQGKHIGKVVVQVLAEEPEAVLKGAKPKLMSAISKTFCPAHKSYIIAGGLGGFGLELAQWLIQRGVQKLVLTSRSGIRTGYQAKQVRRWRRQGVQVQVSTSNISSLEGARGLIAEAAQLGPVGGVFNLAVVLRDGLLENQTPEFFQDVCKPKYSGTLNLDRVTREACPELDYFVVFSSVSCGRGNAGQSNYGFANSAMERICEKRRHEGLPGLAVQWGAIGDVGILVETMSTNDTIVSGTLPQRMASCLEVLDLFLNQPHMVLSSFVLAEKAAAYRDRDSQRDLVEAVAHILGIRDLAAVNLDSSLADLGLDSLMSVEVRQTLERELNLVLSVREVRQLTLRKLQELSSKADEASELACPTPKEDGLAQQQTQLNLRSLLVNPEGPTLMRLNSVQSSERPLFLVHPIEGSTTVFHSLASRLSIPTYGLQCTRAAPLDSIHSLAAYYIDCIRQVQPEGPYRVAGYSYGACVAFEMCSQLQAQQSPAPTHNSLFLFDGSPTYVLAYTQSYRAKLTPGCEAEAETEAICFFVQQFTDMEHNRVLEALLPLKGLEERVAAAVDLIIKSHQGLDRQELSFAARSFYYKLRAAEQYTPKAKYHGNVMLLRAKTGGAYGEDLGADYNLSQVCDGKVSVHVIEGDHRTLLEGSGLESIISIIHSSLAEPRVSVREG
T6 sequence (P11940 whole entry): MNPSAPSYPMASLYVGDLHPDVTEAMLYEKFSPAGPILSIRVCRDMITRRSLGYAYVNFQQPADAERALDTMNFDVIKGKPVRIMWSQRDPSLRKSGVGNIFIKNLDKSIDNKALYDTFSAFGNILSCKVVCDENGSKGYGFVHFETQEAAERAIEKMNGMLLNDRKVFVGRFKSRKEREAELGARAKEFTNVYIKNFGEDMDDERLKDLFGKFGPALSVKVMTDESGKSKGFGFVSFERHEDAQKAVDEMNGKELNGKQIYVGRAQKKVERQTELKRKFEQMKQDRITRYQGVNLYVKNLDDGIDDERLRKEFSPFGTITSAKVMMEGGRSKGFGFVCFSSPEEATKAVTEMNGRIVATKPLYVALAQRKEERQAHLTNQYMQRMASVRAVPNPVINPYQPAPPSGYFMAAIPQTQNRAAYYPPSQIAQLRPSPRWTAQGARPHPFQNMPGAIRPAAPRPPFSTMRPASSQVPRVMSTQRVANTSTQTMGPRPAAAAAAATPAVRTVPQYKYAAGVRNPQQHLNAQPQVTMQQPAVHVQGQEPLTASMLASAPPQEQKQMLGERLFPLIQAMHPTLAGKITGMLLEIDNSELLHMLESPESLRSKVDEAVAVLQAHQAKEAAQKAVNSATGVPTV
NAD-dependent protein deacylase sirtuin-5, mitochondrial, sequence (Q9NXA8 whole entry): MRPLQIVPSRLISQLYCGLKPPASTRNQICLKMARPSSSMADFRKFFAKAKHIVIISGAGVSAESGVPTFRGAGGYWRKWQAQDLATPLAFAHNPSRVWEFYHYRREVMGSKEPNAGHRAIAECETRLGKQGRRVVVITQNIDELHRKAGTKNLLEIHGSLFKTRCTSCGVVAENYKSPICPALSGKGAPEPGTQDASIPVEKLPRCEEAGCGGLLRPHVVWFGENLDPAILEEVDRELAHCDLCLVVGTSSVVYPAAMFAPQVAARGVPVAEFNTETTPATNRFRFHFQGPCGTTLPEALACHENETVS
Estrogen receptor beta, sequence (Q92731 whole entry): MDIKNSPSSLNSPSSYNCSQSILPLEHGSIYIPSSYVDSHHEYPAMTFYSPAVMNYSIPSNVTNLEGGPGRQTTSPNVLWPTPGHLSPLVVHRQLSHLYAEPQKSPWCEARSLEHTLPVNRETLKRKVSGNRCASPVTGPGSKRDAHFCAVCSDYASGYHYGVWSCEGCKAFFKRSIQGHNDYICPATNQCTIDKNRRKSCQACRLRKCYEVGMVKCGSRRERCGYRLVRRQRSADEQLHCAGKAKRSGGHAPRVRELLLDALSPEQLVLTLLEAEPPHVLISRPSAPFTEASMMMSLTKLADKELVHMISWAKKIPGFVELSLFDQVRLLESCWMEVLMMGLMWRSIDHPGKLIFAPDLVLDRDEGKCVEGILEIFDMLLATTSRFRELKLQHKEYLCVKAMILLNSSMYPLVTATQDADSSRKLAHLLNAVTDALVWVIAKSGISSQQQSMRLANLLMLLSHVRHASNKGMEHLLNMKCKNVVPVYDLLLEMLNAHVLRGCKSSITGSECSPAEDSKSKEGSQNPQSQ

For `Fc1c(F)c(C(F)(F)F)c(F)c(F)c1N/N=C\c1cccs1`, the EC50 [1] was 109 µM (active), the IC50 (Fatty acid synthase [2]) was 10.2 µM (active) and the IC50 [3] was > 69.5 µM (inactive). For the same molecule, the EC50 [4] was 43.1 µM (active) and the IC50 (Fatty acid synthase [5]) was 10.4 µM (active).
In the case of `Cc1ccc(C(=O)c2c[nH]nc2-c2cc(Cl)ccc2O)cc1`, the AC50 (Cytochrome P450 2D6) was 28.2 µM (inconclusive) and the IC50 [6] was > 100 µM (not active).
In the case of `COC(=O)C1=C(C)N(Cc2ccccc2C(F)(F)F)C(NCc2ccc3c(c2)OCO3)=NC1c1cccc(Cl)c1` (centres undefined), the IC50 [7] was > 96.6 µM (inactive).
For `CN1CCN(C2=C(NS(=O)(=O)c3cccs3)C(=O)c3ccccc3C2=O)CC1`, the AC50 (INS1) was 5.87 µM (active), the AC50 [8] was 6.98 µM (active) and the AC50 [9] was > 70 µM (inactive).
For `Cc1ccccc1-n1nnnc1Sc1nnnn1-c1ccccc1`, the EC50 [1] was 4.94 µM (active), the EC50 [4] was 4.42 µM (active) and the AC50 [10] was 10.4 µM (active).
With `CCN(CC)CCNc1ccnc2cc(Cl)ccc12` the IC50 [6] was > 100 µM (not active).
In the case of `CCOC(=O)c1c(CSc2ccc(C)cc2)n(C)c2cc(Br)c(O)c(CN(C)C)c12`, the AC50 [11] was 58.8 µM (active), the IC50 [12] was > 66 µM (inactive) and the EC50 (HEK293 [13]) was > 59.6 µM (inactive). The AC50 [14] was 342 nM (active), the AC50 [15] was 452 nM (active) and the CC50 (Vero) was > 25 µM (active). The EC50 (HEK293 [16]) was > 59.6 µM (inactive), the IC50 [17] was > 66 µM (inactive) and the AC50 [18] was 465 nM (active). The AC50 [19] was 1.32 µM (active) and the IC50 [20] was 2.7 µM (active).
With `COc1ccc(N2CCC(CNC(=S)Nc3cccc(OC)c3)C2)cc1` (centres undefined) the IC50 [21] was > 69.5 µM (inactive).
In the case of `C=CCn1c(S)nnc1-c1csc2c1CCC(C)C2` (centres undefined), the IC50 [22] was > 69.4 µM (inactive).
In the case of `CN(Cc1ccccc1)C(c1ccnc2ccccc12)c1nnnn1-c1ccc2c(c1)OCCO2` (centres undefined), the AC50 [23] was 14.2 µM (active).
With `O=C1CCCCC1C(Nc1ccc(Cl)cc1)c1ccccc1` (centres undefined) the IC50 [22] was 34.3 µM (inactive) and the IC50 [21] was > 69.5 µM (inactive).
In the case of `COc1ccc(N2CCC(CN=C(S)Nc3cccc(OC)c3)C2)cc1` (centres undefined), the IC50 [22] was > 69.5 µM (inactive).
With `COc1ccc(OC)c(C2Nc3ccccc3N=C3CC(C)(C)CC(O)=C32)c1` (centres undefined) the AC50 [23] was > 30 µM (inactive).
In the case of `CCc1cc2c(=O)n(CC)c(SC(C)C(=O)Nc3c(C)n(C)n(-c4ccccc4)c3=O)nc2s1` (centres undefined), the IC50 (Estrogen receptor beta) was > 50 µM (not active).
In the case of `CC(C)(C)n1nnnc1C(c1ccc(C#N)cc1)N1CCCC2(CCCCC2)C1` (centres undefined), the IC50 [6] was > 100 µM (not active).
With `CCOc1ccc(C2NC(=O)C(C#N)=C(S)N2c2ccc(OC)cc2)cc1OC` (centres undefined) the IC50 [24] was 134 µM (active) and the IC50 [25] was > 100 µM (active).
In the case of `C=CCn1c(-c2csc3c2CCC(C)C3)n[nH]c1=S` (centres undefined), the IC50 [21] was > 69.4 µM (inactive).
In the case of `COC(=O)C1=C(C)N(Cc2ccccc2C(F)(F)F)C(NCc2ccccc2)=NC1c1ccc(Cl)cc1` (centres undefined), the IC50 [7] was > 96.6 µM (inactive).
